The values below come from patent US9891156B2, “Method for determining the permeation of a permeant through a membrane” (Paraytec Limited, priority 2014, dated 2018).

A short description of this data set: Rapid in vitro release testing of ibuprofen gel by UV/VIS area imaging. The settings on record: calculated comparison value; extinction coefficient 1.5 dm^3 g^−1 cm^−1. The format is in vitro ADME.

Description: Measurements were made by switching the LED source of UV irradiation 51 and the LED source of VIS irradiation 52 and imaging at a frame rate of 2 Hz. […] Imaging is typically carried out alternately at a first wavelength where the API absorbs light (280 or 255 nm) and a second wavelength where there is no absorption (505 nm). […] The sample assembly 20 further comprises a fused silica elongate cuvette 22 which is cuboidal and open at the upper end with a width of 7 mm, a depth of 4 mm and a wall thickness of 1 mm. […] The fused silica elongate cuvette 22 is inserted vertically inside the elongate receptor cell 24 and is capped at a lower end with a membrane 21 which is glued in place. […] The sample assembly 20 further comprises an elongate substantially planar holder 30 for the API formulation 13 (the donor phase) which is slidably inserted in the fused silica elongate cuvette 22. The elongate substantially planar holder 30 projects beyond an upper end 22a of the fused silica elongate cuvette 22 to facilitate removal. […] The vertical bar (z direction) was used for measurement of the absorbance profiles spanning the donor phase, the membrane and the receptor phase (see FIGS. 3B to D).

On to `CC(C)Cc1ccc(C(C)C(=O)O)cc1` (stereo not shown) [ibuprofen], for which the “Depletion value of the donor phase calculated from path length, ibuprofen concentration in the gel and literature extinction coefficient” value is listed as −1.5 AU.
